The compounds below were run against T1, KATP channels (Homo sapiens, UniProt O60706+Q14654) (assay: Potassium Channel Assay (FLIPR membrane potential, TE671 cells)). Conditions: TE671 human medulloblastoma cells, Membrane Potential Assay Dye, room temperature, hyperpolarization from KATP channel opening seen as decrease in fluorescent intensity.
T1 construct: TE671 human medulloblastoma cells were obtained from ATCC; host or cells: TE671 human medulloblastoma cells
Format: cell-based
Description: TE671 human medulloblastoma cells were obtained from ATCC and grown in Dulbecco's modified Eagle's medium (DMEM) supplemented with 10% fetal bovine serum, 100 U/ml penicillin and 100 U/ml streptomycine.
The day before testing, the cells were plated in black 96-well plates at 50K/well. On the day of testing, the growth media was removed, then 100 μl of FLIPR buffer (20 mM HEPES, 120 mM NaCl, 2 mM KCl, 2 mM CaCl2, 1 mM MgCl2, 5 mM Glucose) and 100 μl of Membrane Potential Assay Dye (Molecular Devices) dissolved in FLIPR buffer were added to each well. The cells were incubated at room temperature for 15 to 30 min.
The effect of test compounds on KATP channels were evaluated on a fluorometric imaging plate reader (FLIPR, Molecular Devices) at room temperature. After a baseline period, 50 μl of 5× stock solution of test compound prepared in FLIPR buffer was added and fluorescent change was monitored for 3 minutes. After this reading, glyburide, a KATP channel blocker, was added to a final concentration of 5 μM to check the specificity of the test compound as a KATP channel openers. Hyperpolarization resulting from KATP channel opening was observed as a decrease in fluorescent intensity.

T1 sequence (O60706 1-1549 isoform O60706-2): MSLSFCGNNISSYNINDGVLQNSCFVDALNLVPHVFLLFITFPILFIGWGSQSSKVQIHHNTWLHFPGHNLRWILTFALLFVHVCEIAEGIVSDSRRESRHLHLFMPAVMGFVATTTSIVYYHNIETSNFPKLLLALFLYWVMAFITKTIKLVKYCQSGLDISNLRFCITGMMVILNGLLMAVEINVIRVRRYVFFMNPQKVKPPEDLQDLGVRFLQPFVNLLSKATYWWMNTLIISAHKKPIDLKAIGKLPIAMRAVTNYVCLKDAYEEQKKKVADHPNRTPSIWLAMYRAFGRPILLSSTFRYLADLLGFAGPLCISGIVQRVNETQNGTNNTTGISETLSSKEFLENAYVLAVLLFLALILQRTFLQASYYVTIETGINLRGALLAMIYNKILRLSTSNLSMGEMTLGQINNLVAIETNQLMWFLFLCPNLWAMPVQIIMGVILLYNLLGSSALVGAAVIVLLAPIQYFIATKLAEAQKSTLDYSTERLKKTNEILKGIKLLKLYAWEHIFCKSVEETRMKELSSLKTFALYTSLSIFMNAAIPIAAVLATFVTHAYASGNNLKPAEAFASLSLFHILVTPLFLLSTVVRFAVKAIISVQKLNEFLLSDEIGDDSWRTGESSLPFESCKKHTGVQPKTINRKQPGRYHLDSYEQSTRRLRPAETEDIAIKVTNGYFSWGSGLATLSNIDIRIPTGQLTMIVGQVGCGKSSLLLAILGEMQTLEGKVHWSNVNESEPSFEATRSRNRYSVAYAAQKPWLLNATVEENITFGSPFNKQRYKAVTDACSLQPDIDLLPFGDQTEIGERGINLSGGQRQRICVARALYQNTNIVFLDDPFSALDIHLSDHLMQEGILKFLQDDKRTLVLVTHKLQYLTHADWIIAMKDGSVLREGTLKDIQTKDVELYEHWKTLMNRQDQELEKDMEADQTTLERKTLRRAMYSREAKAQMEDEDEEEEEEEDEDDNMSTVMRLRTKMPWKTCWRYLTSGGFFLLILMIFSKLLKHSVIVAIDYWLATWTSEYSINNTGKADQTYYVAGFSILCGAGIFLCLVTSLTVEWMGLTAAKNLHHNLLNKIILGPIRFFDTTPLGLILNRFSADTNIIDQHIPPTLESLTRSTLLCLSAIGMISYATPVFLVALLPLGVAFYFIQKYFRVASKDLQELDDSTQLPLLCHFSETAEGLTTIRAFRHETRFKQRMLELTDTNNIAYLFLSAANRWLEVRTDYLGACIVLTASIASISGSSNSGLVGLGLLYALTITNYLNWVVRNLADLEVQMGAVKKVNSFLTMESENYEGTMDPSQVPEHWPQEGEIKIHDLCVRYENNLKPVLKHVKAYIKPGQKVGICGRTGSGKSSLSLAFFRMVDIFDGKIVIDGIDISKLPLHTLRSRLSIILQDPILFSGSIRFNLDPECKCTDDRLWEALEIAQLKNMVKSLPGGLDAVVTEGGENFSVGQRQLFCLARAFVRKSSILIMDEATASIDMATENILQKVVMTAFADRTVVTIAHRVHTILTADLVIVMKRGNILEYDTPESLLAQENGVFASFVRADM
T1 sequence (Q14654 whole entry): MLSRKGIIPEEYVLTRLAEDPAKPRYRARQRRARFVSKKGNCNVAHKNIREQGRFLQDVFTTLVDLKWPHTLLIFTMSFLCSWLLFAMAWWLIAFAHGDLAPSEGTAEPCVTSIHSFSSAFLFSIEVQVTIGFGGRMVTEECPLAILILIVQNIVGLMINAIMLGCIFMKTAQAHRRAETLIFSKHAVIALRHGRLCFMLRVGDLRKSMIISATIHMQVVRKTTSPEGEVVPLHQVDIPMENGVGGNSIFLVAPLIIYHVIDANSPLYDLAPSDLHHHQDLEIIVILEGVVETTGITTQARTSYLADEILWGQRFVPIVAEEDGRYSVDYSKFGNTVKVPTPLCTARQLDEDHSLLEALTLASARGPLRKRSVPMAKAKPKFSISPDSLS

Row | SMILES | EC50 [µM]
1 | C=Cc1c(-c2ccc(O)cc2O)c(=O)oc2cc(C#N)ccc12 [Compound 9, 3-(2,4-Dihydroxy-phenyl)-2-oxo-4-vinyl-2H-chromene-7-carbonitrile] | 3.29
2 | O=C(Cc1cc(=O)oc2cc(OS(=O)(=O)C(F)(F)F)ccc12)Nc1c(Cl)cc(Cl)cc1Cl [Compound 13, Trifluoro-methanesulfonic acid 2-oxo-4-[(2,4,6-trichloro-phenylcarbamoyl)-methyl]-2H-chromen-7-yl ester] | 8.76
3 | N#Cc1ccc2c(CC(=O)c3ccc(Cl)cc3)cc(=O)oc2c1 [Compound 4, 4-[2-(4-Chloro-phenyl)-2-oxo-ethyl]-2-oxo-2H-chromene-7-carbonitrile] | 15.9
4 | COCCc1c(-c2ccc(OC)cc2OC)c(=O)oc2cc(C#N)ccc12 [Compound 6, 3-(2,4-Dimethoxy-phenyl)-4-(2-methoxy-ethyl)-2-oxo-2H-chromene-7-carbonitrile] | > 30
5 | N#Cc1ccc2oc(=O)cc(CC(O)c3ccc(Cl)cc3Cl)c2c1 (stereo not shown) [Compound 20, 4-[2-(2,4-Dichloro-phenyl)-2-hydroxy-ethyl]-2-oxo-2H-chromene-6-carbonitrile] | > 30
6 | O=C(Cc1cc(=O)oc2ccc(OS(=O)(=O)C(F)(F)F)cc12)c1cccc(Cl)c1 [Compound 22, Trifluoro-methanesulfonic acid 4-[2-(3-chloro-phenyl)-2-oxo-ethyl]-2-oxo-2H-chromen-6-yl ester] | 19.9
7 | O=c1cc(CC(O)c2ccc(Cl)cc2Cl)c2ccc(OS(=O)(=O)C(F)(F)F)cc2o1 (stereo not shown) [Compound 12, Trifluoro-methanesulfonic acid 4-[2-(2,4-dichloro-phenyl)-2-hydroxy-ethyl]-2-oxo-2H-chromen-7-yl ester] | 6.58
8 | C=Cc1c(-c2ccc(C#N)cc2O)c(=O)oc2cc(F)ccc12 [Compound 11, 44-(7-Fluoro-2-oxo-4-vinyl-2H-chromen-3-yl)-3-hydroxy-benzonitrile] | > 30
9 | N#Cc1ccc2c(CCO)c(-c3ccc(O)cc3O)c(=O)oc2c1 [Compound 8, 3-(2,4-Dihydroxy-phenyl)-4-(2-hydroxy-ethyl)-2-oxo-2H-chromene-7-carbonitrile] | 23.2
10 | N#Cc1ccc2c(CC(=O)Nc3cccc(Cl)c3Cl)cc(=O)oc2c1 [Compound 19, 2-(7-Cyano-2-oxo-2H-chromen-4-yl)-N-(2,3-dichloro-phenyl)-acetamide] | 10.7
11 | N#Cc1ccc2oc(=O)cc(CC(=O)c3cccc(Cl)c3)c2c1 [Compound 21, 4-[2-(3-Chloro-phenyl)-2-oxo-ethyl]-2-oxo-2H-chromene-6-carbonitrile] | > 30
12 | N#Cc1ccc2c(CC(=O)Nc3ccccc3F)cc(=O)oc2c1 [Compound 16, 2-(7-Cyano-2-oxo-2H-chromen-4-yl)-N-(2-fluoro-phenyl)-acetamide] | 3.84
13 | N#Cc1ccc2c(CC(=O)Nc3ccccc3Cl)cc(=O)oc2c1 [Compound 17, N-(2-Chloro-phenyl)-2-(7-cyano-2-oxo-2H-chromen-4-yl)-acetamide] | 19.5
14 | N#Cc1ccc2c(CC(O)c3ccc(Cl)cc3Cl)cc(=O)oc2c1 (stereo not shown) [Compound 14, 4-[2-(2,4-Dichloro-phenyl)-2-hydroxy-ethyl]-2-oxo-2H-chromene-7-carbonitrile] | > 30
15 | N#Cc1ccc2c(CC(=O)Nc3cccc(Cl)c3)cc(=O)oc2c1 [Compound 18, N-(3-Chloro-phenyl)-2-(7-cyano-2-oxo-2H-chromen-4-yl)-acetamide] | 7.74
16 | Cc1c(C(=O)c2ccc(Cl)cc2)c(=O)oc2cc(C#N)ccc12 [Compound 3, 3-(4-Chloro-benzoyl)-4-methyl-2-oxo-2H-chromene-7-carbonitrile] | > 30
17 | COCCc1c(-c2ccc(OC)cc2OC)c(=O)oc2cc(OS(=O)(=O)C(F)(F)F)ccc12 [Compound 2, Trifluoro-methanesulfonic acid 3-(2,4-dimethoxy-phenyl)-4-(2-methoxy-ethyl)-2-oxo-2H-chromen-7-yl ester] | 9.55
18 | O=c1oc2cc(OS(=O)(=O)C(F)(F)F)ccc2c(CCO)c1-c1ccc(O)cc1O [Compound 7, Trifluoro-methanesulfonic acid 3-(2,4-dihydroxy-phenyl)-4-(2-hydroxy-ethyl)-2-oxo-2H-chromen-7-yl ester] | 19.5
19 | N#Cc1ccc2c(CC(=O)Nc3ccc(F)cc3F)cc(=O)oc2c1 [Compound 15, 2-(7-Cyano-2-oxo-2H-chromen-4-yl)-N-(2,4-difluoro-phenyl)-acetamide] | 13.9
